This note sets out measurements from patent US12209102B2, “Heterocyclic compounds and uses thereof” (Kumquat Biosciences Inc., priority 2022, dated 2025).

In general, IC50 refers to the concentration that inhibits the measured activity by half.

For experiment [1], the target named is T1, K-Ras G12D (Homo sapiens, UniProt P01116, G12D).
T1 construct: made in house; host or cells: E. coli BL21 (DE3)
In words: HTRF resonance energy transfer assay, K-Ras G12D / SOS1 interaction. The note with it: HTRF assay of Example 5; read-out: IC50 against K-Ras G12D. It counts as biochemical. Put shortly: (§1)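 Buffer about 5 mM HEPES pH 7.4 with ~150 mM NaCl, ~1 mM DTT, 0.05% BSA, 0.0025% (v/v) Igepal. Protein constructs used at molarity matching the IC50 range studied (e.g. ~500 nM). FRET between tagged K-Ras and hSOS1 measured after short incubation.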
For orientation: In TR-FRET formats the signal depends on donor and acceptor labels being close together.

The target in experiment [2] is T2, K-Ras G12S (Homo sapiens, UniProt P01116, G12S).
T2 construct: made in house; host or cells: E. coli BL21 (DE3)
Nature of the experiment: HTRF resonance energy transfer assay, K-Ras G12S / SOS1 interaction. The format is biochemical. The following applies: HTRF assay of Example 5; read-out: IC50 against K-Ras G12S. Put shortly:
as §1

In experiment [3] the target is T3, K-Ras G12V (Homo sapiens, UniProt P01116, G12V).
T3 construct: made in house; host or cells: E. coli BL21 (DE3)
In words: HTRF resonance energy transfer assay, K-Ras G12V / SOS1 interaction. The format is biochemical. The note with it: HTRF assay of Example 5; read-out: IC50 against K-Ras G12V. The method in brief: as §1

The target of experiment [4] is T4, K-Ras WT (Homo sapiens, UniProt P01116).
T4 construct: made in house; host or cells: E. coli BL21 (DE3)
In words: HTRF resonance energy transfer assay, K-Ras WT / SOS1 interaction. The format is biochemical. The note with it: HTRF assay of Example 5; read-out: IC50 against K-Ras WT. Put shortly: as §1

Experiment [5] relates to GP2D cells. Nature of the experiment: Ras cellular assay, growth of cells with K-Ras G12D mutation (CellTiter-Glo). It counts as cell-based. The following applies: cell growth, Example 9, G12D mutation, read-out: IC50 against GP2D cells.
The subject of experiment [6] is A549 cells. In words: Ras cellular assay, growth of cells with K-Ras G12S mutation (CellTiter-Glo). The format is cell-based. The note with it: Homo sapiens, cell growth, Example 9, G12S mutation, read-out: IC50 against A549 cells. Put shortly: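 Growth inhibition IC50 values come from four-parameter fits of CellTiter-Glo luminescence, read about 6 days after compound addition. G12S-mutant A549 cells (e.g. 800/well, RPMI-1640 + 10% heat-inactivated FBS) were plated in tissue-culture-treated or ultra-low-attachment 384-well format. Dosing began the following day with serial dilutions, e.g. 10 points, 3-fold.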
In general terms: Cellular ATP, detected with luciferase, serves as a proxy for viable cell number.

Experiment [7] has as its system SW620 cells. In words: Ras cellular assay, growth of cells with K-Ras G12V mutation (CellTiter-Glo). It counts as cell-based. The following applies: Homo sapiens, SW-620; cell growth, Example 9, G12V mutation; read-out: IC50 against SW620 cells. Put shortly: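 IC50 values came from a four-parameter fit of CellTiter-Glo viability, read roughly 6 days after dosing with e.g. a 10-point threefold dilution series. G12V-mutant SW620 cells (e.g. 800 per well) had been plated the previous day in RPMI-1640/10% heat-inactivated FBS, on tissue culture-treated or ultra-low attachment plates.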

Each structure is given as a SMILES string.

T1 sequence (P01116 1-188 isoform P01116-2 G12D): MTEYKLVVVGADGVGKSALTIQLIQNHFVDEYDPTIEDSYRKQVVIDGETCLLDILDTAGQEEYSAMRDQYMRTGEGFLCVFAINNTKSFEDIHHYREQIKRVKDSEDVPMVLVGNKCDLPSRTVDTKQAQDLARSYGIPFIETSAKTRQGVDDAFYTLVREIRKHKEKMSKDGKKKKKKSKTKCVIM
T3 sequence (P01116 1-188 isoform P01116-2 G12V): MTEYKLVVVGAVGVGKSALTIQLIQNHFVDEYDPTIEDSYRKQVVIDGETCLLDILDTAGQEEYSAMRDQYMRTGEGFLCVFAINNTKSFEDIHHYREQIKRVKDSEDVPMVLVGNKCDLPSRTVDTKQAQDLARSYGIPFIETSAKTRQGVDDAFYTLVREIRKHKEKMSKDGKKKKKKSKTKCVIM
T4 sequence (P01116 1-188 isoform P01116-2): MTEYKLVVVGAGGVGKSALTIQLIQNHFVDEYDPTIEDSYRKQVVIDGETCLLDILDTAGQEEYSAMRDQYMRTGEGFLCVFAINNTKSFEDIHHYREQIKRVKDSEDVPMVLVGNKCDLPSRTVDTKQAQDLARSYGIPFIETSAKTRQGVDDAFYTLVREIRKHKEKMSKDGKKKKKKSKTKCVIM
T2 sequence (P01116 1-188 isoform P01116-2 G12S): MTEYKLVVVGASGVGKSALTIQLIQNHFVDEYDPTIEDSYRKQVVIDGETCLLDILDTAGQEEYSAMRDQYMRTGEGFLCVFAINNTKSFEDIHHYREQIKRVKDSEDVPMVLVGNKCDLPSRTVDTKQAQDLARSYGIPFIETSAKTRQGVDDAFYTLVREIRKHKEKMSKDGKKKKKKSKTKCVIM

For the compound `N#Cc1c(N)sc2c(F)ccc(-c3c(Cl)c4c5c(nc(OC[C@@]67CCCN6C[C@H](F)C7)nc5c3F)N(C3CC(NC(=O)C(F)F)C3)CCO4)c12` (stereo partly drawn) [Compound 612, N-(3-(9-(2-amino-3-cyano-7-fluorobenzo[b]thiophen-4-yl)-8-chloro-10-fluoro-2-(((2R,7aS)-2-fluorotetrahydro-1H-pyrrolizin-7a(5H)-yl)methoxy)-5,6-dihydro-4H-[1,4]oxazepino[5,6,7-de]quinazolin-4-yl)cyclobutyl)-2,2-difluoroacetamide], the 50% inhibitory concentration (IC50) in experiment [1] is below 0.1 µM; in experiment [2], below 0.1 µM; in experiment [3], below 0.1 µM; in experiment [4] it was below 0.1 µM; in experiment [5], below 0.5 µM; in experiment [6], below 5 µM. Besides, the IC50 in experiment [7] was below 5 µM.
Regarding `CN(CCN1CCOc2c(Cl)c(-c3ccc(F)c4sc(N)c(C#N)c34)c(F)c3nc(OC[C@@]45CCCN4C[C@H](F)C5)nc1c23)C(=O)[C@@H]1N[C@H]1C1CC1` [Compound 613, (2R,3S)-N-(2-(9-(2-amino-3-cyano-7-fluorobenzo[b]thiophen-4-yl)-8-chloro-10-fluoro-2-(((2R,7aS)-2-fluorotetrahydro-1H-pyrrolizin-7a(5H)-yl)methoxy)-5,6-dihydro-4H-[1,4]oxazepino[5,6,7-de]quinazolin-4-yl)ethyl)-3-cyclopropyl-N-methylaziridine-2-carboxamide], the IC50 in experiment [1] is below 0.1 µM; in experiment [2] it was below 0.1 µM; in experiment [3] it was below 0.1 µM; in experiment [4] it was below 0.1 µM; in experiment [5], below 0.5 µM; in experiment [6], below 5 µM. Besides, in experiment [7], the IC50 was below 5 µM.
For `N#Cc1c(N)sc2c(F)ccc(-c3c(Cl)c4c5c(nc(OC[C@@]67CCCN6C[C@H](F)C7)nc5c3F)N([C@@H]3CCOC3)CCO4)c12` [Compound 617, 2-amino-4-(8-chloro-10-fluoro-2-(((2R,7aS)-2-fluorotetrahydro-1H-pyrrolizin-7a(5H)-yl)methoxy)-4-((R)-tetrahydrofuran-3-yl)-5,6-dihydro-4H-[1,4]oxazepino[5,6,7-de]quinazolin-9-yl)-7-fluorobenzo[b]thiophene-3-carbonitrile], the IC50 in experiment [1] is below 0.1 µM; in experiment [2], below 0.1 µM; in experiment [3] it was below 0.1 µM; in experiment [4], below 0.1 µM; in experiment [5], below 0.5 µM; in experiment [6] it was below 5 µM. Also, the half-maximal inhibitory concentration (IC50) in experiment [7] is below 5 µM.
On to `C[C@H](Oc1nc2c3c(c(Cl)c(-c4ccc(F)c5sc(N)c(C#N)c45)c(F)c3n1)OCCN2[C@@H]1CCN(C=O)C1)[C@@H]1CCCN1C` [Compound 621, 2-amino-4-(8-chloro-10-fluoro-4-((R)-1-formylpyrrolidin-3-yl)-2-((S)-1-((S)-1-methylpyrrolidin-2-yl)ethoxy)-5,6-dihydro-4H-[1,4]oxazepino[5,6,7-de]quinazolin-9-yl)-7-fluorobenzo[b]thiophene-3-carbonitrile], for which the half-inhibitory concentration (IC50) was below 0.1 µM in experiment [1]; below 0.1 µM in experiment [2]; below 0.1 µM in experiment [3]; below 0.1 µM in experiment [4]; below 0.5 µM in experiment [5]; below 5 µM in experiment [6]. Also, in experiment [7], the half-maximal inhibitory concentration (IC50) was below 5 µM.
In the case of `CN1CCC(N2CCOc3c(Cl)c(-c4ccc(F)c5sc(N)c(C#N)c45)c(F)c4nc(OC[C@@]56CCCN5C[C@H](F)C6)nc2c34)C1=O` (stereo partly drawn) [Compound 624, 2-amino-4-(8-chloro-10-fluoro-2-(((2R,7aS)-2-fluorotetrahydro-1H-pyrrolizin-7a(5H)-yl)methoxy)-4-(1-methyl-2-oxopyrrolidin-3-yl)-5,6-dihydro-4H-[1,4]oxazepino[5,6,7-de]quinazolin-9-yl)-7-fluorobenzo[b]thiophene-3-carbonitrile], the concentration for half-maximal inhibition (IC50) in experiment [1] is below 0.1 µM; in experiment [2], below 0.1 µM; in experiment [3], below 0.1 µM; in experiment [4] it was below 0.1 µM; in experiment [5] it was below 0.5 µM; in experiment [6] it was below 5 µM. For the same compound, the IC50 in experiment [7] was below 5 µM.
